Measurements as given in publication PMC3913050 (Bioorganic & medicinal chemistry, 2013).

What was measured:
[1] = target: serotonin transporter (SERT) (Rattus norvegicus, UniProt P31652); experiment: Inhibition of [3H]5-HT uptake by SERT in rat cerebral cortex; assay type: biochemical
[2] = target: dopamine transporter (DAT) (Rattus norvegicus, UniProt P23977); experiment: Inhibition of [3H]DA uptake by DAT in rat striatum; assay type: biochemical
[3] = target: norepinephrine transporter (NET) (Rattus norvegicus, UniProt Q63380); experiment: Inhibition of [3H]DA uptake by NET in rat cerebral cortex
Chain of norepinephrine transporter (NET) (Q63380 1-617): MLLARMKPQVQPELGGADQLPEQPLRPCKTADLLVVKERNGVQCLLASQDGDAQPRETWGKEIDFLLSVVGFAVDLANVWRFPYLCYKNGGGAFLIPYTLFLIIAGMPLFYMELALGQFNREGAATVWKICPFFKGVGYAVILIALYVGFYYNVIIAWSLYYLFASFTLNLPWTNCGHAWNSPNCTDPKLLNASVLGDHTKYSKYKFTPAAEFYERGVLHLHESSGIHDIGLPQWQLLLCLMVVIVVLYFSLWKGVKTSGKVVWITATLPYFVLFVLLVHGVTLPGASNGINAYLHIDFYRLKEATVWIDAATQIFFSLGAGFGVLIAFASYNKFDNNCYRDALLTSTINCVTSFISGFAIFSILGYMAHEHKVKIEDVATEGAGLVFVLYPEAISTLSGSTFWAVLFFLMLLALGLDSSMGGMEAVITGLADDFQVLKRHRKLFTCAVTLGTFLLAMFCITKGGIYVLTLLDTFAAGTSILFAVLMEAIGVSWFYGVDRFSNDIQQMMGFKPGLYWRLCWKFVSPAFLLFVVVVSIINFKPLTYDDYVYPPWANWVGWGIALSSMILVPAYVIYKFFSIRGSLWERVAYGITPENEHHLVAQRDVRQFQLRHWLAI

Chain of dopamine transporter (DAT) (P23977 whole entry): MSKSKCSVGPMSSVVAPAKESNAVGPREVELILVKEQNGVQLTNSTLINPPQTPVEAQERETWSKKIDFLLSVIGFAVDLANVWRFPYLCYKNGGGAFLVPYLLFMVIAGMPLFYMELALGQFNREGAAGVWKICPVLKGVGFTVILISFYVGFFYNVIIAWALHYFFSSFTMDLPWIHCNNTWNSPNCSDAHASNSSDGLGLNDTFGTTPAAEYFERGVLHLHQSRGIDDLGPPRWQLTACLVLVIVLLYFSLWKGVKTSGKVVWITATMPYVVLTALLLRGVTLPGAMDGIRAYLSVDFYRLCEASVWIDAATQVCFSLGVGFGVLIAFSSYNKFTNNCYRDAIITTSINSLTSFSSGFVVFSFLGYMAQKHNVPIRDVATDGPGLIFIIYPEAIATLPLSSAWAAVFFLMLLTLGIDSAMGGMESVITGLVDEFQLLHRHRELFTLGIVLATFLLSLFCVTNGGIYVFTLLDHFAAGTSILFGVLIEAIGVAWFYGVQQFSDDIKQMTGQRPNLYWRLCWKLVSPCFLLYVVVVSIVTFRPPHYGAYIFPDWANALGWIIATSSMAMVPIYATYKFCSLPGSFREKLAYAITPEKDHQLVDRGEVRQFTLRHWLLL
Chain of serotonin transporter (SERT) (P31652 whole entry): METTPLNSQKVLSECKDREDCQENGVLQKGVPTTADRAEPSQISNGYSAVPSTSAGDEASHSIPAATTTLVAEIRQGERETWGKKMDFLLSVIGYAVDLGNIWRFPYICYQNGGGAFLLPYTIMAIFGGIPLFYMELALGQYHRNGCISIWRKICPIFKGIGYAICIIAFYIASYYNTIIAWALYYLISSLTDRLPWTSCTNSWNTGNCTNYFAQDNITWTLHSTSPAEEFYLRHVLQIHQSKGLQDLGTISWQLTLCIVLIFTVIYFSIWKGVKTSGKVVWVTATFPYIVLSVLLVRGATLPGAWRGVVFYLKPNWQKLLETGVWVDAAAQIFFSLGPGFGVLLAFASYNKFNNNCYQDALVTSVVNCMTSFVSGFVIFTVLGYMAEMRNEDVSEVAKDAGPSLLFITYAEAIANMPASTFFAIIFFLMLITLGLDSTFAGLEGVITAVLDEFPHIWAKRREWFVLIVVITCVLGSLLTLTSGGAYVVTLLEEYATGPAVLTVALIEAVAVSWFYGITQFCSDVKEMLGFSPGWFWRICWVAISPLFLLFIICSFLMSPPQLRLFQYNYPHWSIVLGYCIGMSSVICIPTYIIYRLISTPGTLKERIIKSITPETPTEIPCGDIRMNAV

activity against SERT (in words) ([1]; uptake inhibition) | activity against DAT (in words) ([2]; uptake inhibition) | activity against NET (in words) ([3]; uptake inhibition) | Compound | Ki ([1]; read-out: Ki uptake inhibition, SERT, text value in µM) [µM] | Ki ([2]; read-out: Ki uptake inhibition, DAT, text value in µM) [µM] | Ki ([3]; read-out: Ki uptake inhibition, NET, text value in µM) [µM]
– | – | – | 3-((((3S,5S)-5-benzhydryltetrahydrofuran-3-yl)amino)methyl)phenol [compound 40] | 1.15 | 0.94 | 1.51
inactive | weak activity | weak activity | c1ccc(CCN[C@@H]2CO[C@H](C(c3ccccc3)c3ccccc3)C2)cc1 [compound 44, (3S,5S)-5-benzhydryl-N-phenethyltetrahydrofuran-3-amine] | – | – | –
